Tests used:
hLXRβ = molecular target: T1, hLXRβ (Homo sapiens, UniProt P55055); assay: LXRβ transactivation activity, GAL4-hLXRβ LBD / (UAS)4-alkaline phosphatase reporter, transient transfection in CHO-K1 cells; assay type: cell-based; settings: for LXRβ transactivation activity, % of GW3965: co-treated with LXR agonist GW3965 (0.5 μM); for LXRβ transactivation activity, % of GW3965 / LXRβ transactivation activity, % of the positive control GW3965: 48 hours; for Antagonistic effect (LXRβ), ↓ percentage: against LXR agonist (GW3965); for Enhancing effect (LXRβ), ↑ percentage: sample alone, relative to positive control
T1 construct: expressed in transfected cells; host or cells: CHO-K1 (Chinese hamster ovary), transient transfection with pBKCMV GAL4-hLXRβ
T1 sequence (P55055 222-460 limits assumed): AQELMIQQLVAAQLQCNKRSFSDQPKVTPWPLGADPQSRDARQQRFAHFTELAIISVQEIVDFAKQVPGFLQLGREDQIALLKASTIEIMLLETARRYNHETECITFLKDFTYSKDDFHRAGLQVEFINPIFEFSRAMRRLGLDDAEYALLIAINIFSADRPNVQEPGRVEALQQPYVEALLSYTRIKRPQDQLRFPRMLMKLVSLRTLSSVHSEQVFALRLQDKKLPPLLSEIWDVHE
Source text: (§1) For the evaluation of LXR transactivation activity, the embodiments of the present invention utilize transient transfection and the vectors used are: (1) pBKCMV GAL4-hLXRα and pBKCMV GAL4-hLXRβ; (2) pBKCMV (UAS)4-alkaline phosphatase, wherein pBKCMV GAL4-hLXRα and pBKCMV GAL4-hLXRβ are pBKCMV vectors having chimeric receptor of GAL4-hLXRα ligand binding doman (LBD) and GAL4-hLXRβ LBD, while pBKCMV (UAS)4-alkaline phosphatase is the pBKCMV vector having the reporter gene of (UAS)4 alkaline phosphatase (ALP). UAS indicates upstream activation sequence. All vectors were co-transfected into Chinese hamster ovary cell (CHO-K1, from Bioresource Collection and Research Center of Food Industry Research and Development Institute, BCRC: 6006).
(§2) Transient transfection of the embodiments of the present invention was performed using Lipofectamin 2000 (Invitrogen). Firstly, after CHO-K1 cells were fully grown, cells were dis-attached by trpsin-EDTA solution and were eluted using 10% CSF-Ham's F-12, wherein CSF represents the FBS pretreated by charcoal (Dextran coated, Sigma, C6231). The cell suspension was diluted to 2.5×10^5 cells/mL, planted onto 96-well plate (100 μL/well), and incubated for 20 to 24 hours at 37° C. with 5% CO2.
(§3) Detailed steps for transfection are as follow: Lipofectamine 2000 was diluted in PS tubes by serum-free OPTI-MEM®I (GIBCO, 31985) for 5 minutes at room temperature; the vector DNA was diluted by a small amount of serum-free OPTI-MEM®I; the vectors in Table 2 were mixed with Lipofectamine 2000 with specific ratio (GAL4-hLXRα:(UAS)4-ALP=4:1; GAL4-hLXRβ:(UAS)4-ALP=4:1) and reacted for 20 minutes at room temperature. During the reaction, the cells were washed by serum-free Ham's F-12 medium (100 μL/well) twice to allow the formation of DNA-liposome complex; the vectors were then added to the above washed cells for transfection to take place at 37° C. and 5% CO2. Solution for transfection was removed after the transient transfection was completed.
(§4) The ALP activity analysis was performed by reacting the culture medium (20 μL/well) and reactant (100 mM pNPP:H2O:2X SEAP assay buffer=1:9:10, 200 μL/well) in a new 96-well plate for 15 minutes at 37° C. The absorbance at 405 nm was measured using microspectrometer.
Cells after the abovementioned transient transfection and removing the transfection solution were added to fucoxanthin and fucoxanthinol diluted with 10% TCM-Ham's F-12, LXR agonist GW3965 (3-[3-[[[2-Chloro-3-trifluoromethyl)-phenyl]methyl](2,2-diphenyl-ethyl)amino]-propoxy]benzeneacetic acid), or none, to serve as experimental group, positive control, or vehicle, respectively. The ALP activities of all groups were analysis after incubation for 48 hours at 37° C. with 5% CO2. Same method for ALP analysis applied as describe in Example 2.

hLXRα = molecular target: T2, hLXRα (Homo sapiens, UniProt Q13133); assay: LXRα transactivation activity, GAL4-hLXRα LBD / (UAS)4-alkaline phosphatase reporter, transient transfection in CHO-K1 cells; assay type: cell-based; set-up: key to Enhancing effect (LXRα): “—” indicates no significant effect; settings: for LXRα transactivation activity, % of T0901317: co-treated with LXR agonist T0901317 (0.5 μM); for LXRα transactivation activity, % of T0901317 / LXRα transactivation activity: 48 hours; for Antagonistic effect (LXRα), ↓ percentage: against LXR agonist (T0901317); for LXRα transactivation activity: sample alone at 1, 5, and 10 μM, p>0.05 vs vehicle; for Enhancing effect (LXRα): sample alone, enhancing percentage relative to positive control
T2 construct: expressed in transfected cells; host or cells: CHO-K1 (Chinese hamster ovary), transient transfection with pBKCMV GAL4-hLXRα
T2 sequence (Q13133 209-447 limits assumed): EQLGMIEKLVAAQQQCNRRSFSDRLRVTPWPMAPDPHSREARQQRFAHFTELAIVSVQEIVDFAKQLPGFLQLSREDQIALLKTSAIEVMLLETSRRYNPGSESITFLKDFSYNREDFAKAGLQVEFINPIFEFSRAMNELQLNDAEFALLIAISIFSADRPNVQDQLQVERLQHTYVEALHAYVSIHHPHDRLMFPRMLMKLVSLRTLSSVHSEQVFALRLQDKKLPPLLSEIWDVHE
Source text: as §1, §2, §3
Cells after transient transfection in Example 1 and removing the transfection solution were added to fucoxanthin and fucoxanthinol diluted with 10% TCM-Ham's F-12, LXR agonist T0901317, or none, to serve as experimental group, positive control, or vehicle, respectively. The ALP activities of all groups were analysis after incubation for 48 hours at 37° C. with 5% CO2.
as §4

Compound | LXRβ transactivation activity, % of GW3965 (hLXRβ; 5 μM) [%] | Antagonistic effect (LXRβ), ↓ percentage (hLXRβ; 10 μM) | LXRβ transactivation activity, % of GW3965 (hLXRβ; 10 μM) [%] | Enhancing effect (LXRβ), ↑ percentage (hLXRβ; 10 μM) | LXRβ transactivation activity, % of the positive control GW3965 (hLXRβ; sample alone at 10 μM) | LXRα transactivation activity, % of T0901317 (hLXRα; 5 μM) [%] | Antagonistic effect (LXRα), ↓ percentage (hLXRα; 10 μM) | LXRα transactivation activity, % of T0901317 (hLXRα; 10 μM) [%] | LXRα transactivation activity (hLXRα) | Enhancing effect (LXRα) (hLXRα) | LXRβ transactivation activity, % of GW3965 (hLXRβ; 1 μM) [%] | Enhancing effect (LXRβ), ↑ percentage (hLXRβ; 1 μM) | LXRβ transactivation activity, % of the positive control GW3965 (hLXRβ; sample alone at 1 μM) | LXRβ transactivation activity, % of the positive control GW3965 (hLXRβ; sample alone at 5 μM)
fucoxanthin | 69 | ↓49% | 51 | ↑2% | approximately 2% | 76 | ↓59% | 41 | no significant LXRα transactivation activities | — |  |  |  | 
C\C(C=C=C1C(C)(C)C[C@H](O)C[C@@]1(C)O)=C/C=C/C(C)=C/C=C/C=C(C)/C=C/C=C(\C)C(=O)C[C@@]12O[C@]1(C)C[C@@H](O)CC2(C)C [fucoxanthinol] | 62 | ↓64% | 36 |  |  | 48 | ↓80% | 20 | no significant LXRα transactivation activities | — | 79 | ↑3% | approximately 3% | approximately 2%

Source: patent publication US9056091B1, “Composition for regulation of liver X receptor” (National Taiwan University, priority 2014, dated 2015)
